How the values were obtained:
Type in all cases: in vivo
[1] = tested on: New Zealand rabbits with acute ocular hypertension; test: Intraocular pressure reduction experiment in New Zealand rabbits with acute ocular hypertension, experiment operation 2; details: for Intraocular pressure in the left eye: left eye (solvent, not modeled)
Source text: (§1) Experimental Example 3. Intraocular Pressure Reduction Experiment in New Zealand Rabbits with Acute Ocular Hypertension
(§2) Acute ocular hypertension of rabbits were induced by anterior chamber injection of a viscoelastic agent and the intraocular pressure reduction action of compound 60 and compound 63 at different concentrations were explored by eye-drop administration.
(§3) Male New Zealand rabbits, aged 97-127 days, weighted 2.5-3.4 kg, purchased from PizhouDongfang Breeding Co. Ltd.
50 male New Zealand rabbits were randomly divided into 5 groups according to body weight, with 10 rabbits/per group Animals in 1-5 groups were injected with medical sodium hyaluronate gel in the anterior chamber of right eye in a single dose, 100 μL/eye, to induce ocular hypertension. In 5-15 minutes after modeling, the right eye was respectively dropped with a solvent, K-115 and test samples (compound 63 at different concentrations), the left eye was dropped with a solvent, the volume of the administration was all 50 μL/eye, and intraocular pressure in both eyes of the animals was measured before administration and in 2, 4, 6, 8 and 10 hours after administration, respectively.

[2] = tested on: New Zealand rabbits with acute ocular hypertension; test: Intraocular pressure reduction experiment in New Zealand rabbits with acute ocular hypertension, experiment operation 1; details: 10 mg/mL both eyes; for Intraocular pressure in the left eye: left eye (not modeled); for Intraocular pressure in the right eye: right eye (induced ocular hypertension)
Source text: as §1, §2, §3
Male New Zealand rabbits were randomly divided into 8 rabbits/per group according to body weight using a computer-generated randomization method. The animals in each group were injected with medical sodium hyaluronate gel in the anterior chamber of right eye in a single dose, 100 μL/eye, to induce ocular hypertension. In 5-15 minutes, 3 hours and 6 hours after right eye modeling, both eyes were dropped with a solvent, K-115 or test samples (compound 60 at different concentrations) at a volume of 50 μL/eye and intraocular pressure of the animals was measured before administration and in 1, 2, 4, 6, 8 and 10 hours after administration, respectively.

[3] = tested on: New Zealand rabbits with normal intraocular pressure; test: Intraocular pressure reduction experiment in New Zealand rabbits with normal intraocular pressure; details: for Intraocular pressure in the left eye: 20 mg/mL group, left eye (saline or solvent); for Intraocular pressure in the right eye: 20 mg/mL in right eye; for Reduction magnitude of intraocular pressure: 20 mg/mL, left minus right eye
Source text: Experimental Example 2. Intraocular Pressure Reduction Experiment in New Zealand Rabbits with Normal Intraocular Pressure
Rabbits with normal intraocular pressure were adopted to screen intraocular pressure reduction actions of the potential compounds by eye-drop administration.
Male New Zealand rabbits, aged 97-127 days, weighted 2.65-3.5 kg, purchased from PizhouDongfang Breeding Co. Ltd.
The male New Zealand rabbits were randomly divided into 8 rabbits/per group using a computer-generated randomization method Animals in each group were eye-dropped with different test samples in the right eye, and normal saline or solvent in the left eye, and the volume of the administration was both 50 μL/eye. The intraocular pressure of the animals was measured before administration and in 1, 2, 4, 6, 8 and 10 hours after the administration, respectively.

## Cc1ccc(C(=O)OCn2cc(C)c3c(S(=O)(=O)N4CC[C@H](N)C4)cccc3c2=O)c(C)c1 [Compound 63]
[1]; 0.25 mg/mL group, 2 hours after administration
  Intraocular pressure in the left eye: 6.07 mmHg
[1]; 0.25 mg/mL group, 4 hours after administration
  Intraocular pressure in the left eye: 6.60 mmHg
[1]; 0.25 mg/mL group, 6 hours after administration
  Intraocular pressure in the left eye: 9.10 mmHg
[1]; 0.25 mg/mL group, 8 hours after administration
  Intraocular pressure in the left eye: 11.50 mmHg
[1]; 0.25 mg/mL group, 10 hours after administration
  Intraocular pressure in the left eye: 12.43 mmHg
[1]; 0.25 mg/mL group, before administration
  Intraocular pressure in the left eye: 10.53 mmHg
[1]; 0.25 mg/mL in right eye (induced ocular hypertension), 2 hours after administration
  Intraocular pressure in the right eye: 8.47 mmHg
[1]; 0.25 mg/mL in right eye (induced ocular hypertension), 4 hours after administration
  Intraocular pressure in the right eye: 8.60 mmHg
[1]; 0.25 mg/mL in right eye (induced ocular hypertension), 6 hours after administration
  Intraocular pressure in the right eye: 11.20 mmHg
[1]; 0.25 mg/mL in right eye (induced ocular hypertension), 8 hours after administration
  Intraocular pressure in the right eye: 13.37 mmHg
[1]; 0.25 mg/mL in right eye (induced ocular hypertension), 10 hours after administration
  Intraocular pressure in the right eye: 13.10 mmHg
[1]; 0.25 mg/mL in right eye (induced ocular hypertension), before administration
  Intraocular pressure in the right eye: 11.43 mmHg
[1]; 2.0 mg/mL group, 2 hours after administration
  Intraocular pressure in the left eye: 6.60 mmHg
[1]; 2.0 mg/mL group, 4 hours after administration
  Intraocular pressure in the left eye: 7.04 mmHg
[1]; 2.0 mg/mL group, 6 hours after administration
  Intraocular pressure in the left eye: 11.23 mmHg
[1]; 2.0 mg/mL group, 8 hours after administration
  Intraocular pressure in the left eye: 12.84 mmHg
[1]; 2.0 mg/mL group, 10 hours after administration
  Intraocular pressure in the left eye: 13.10 mmHg
[1]; 2.0 mg/mL group, before administration
  Intraocular pressure in the left eye: 11.27 mmHg
[1]; 2.0 mg/mL in right eye (induced ocular hypertension), 2 hours after administration
  Intraocular pressure in the right eye: 8.52 mmHg
[1]; 2.0 mg/mL in right eye (induced ocular hypertension), 4 hours after administration
  Intraocular pressure in the right eye: 11.56 mmHg
[1]; 2.0 mg/mL in right eye (induced ocular hypertension), 6 hours after administration
  Intraocular pressure in the right eye: 13.81 mmHg
[1]; 2.0 mg/mL in right eye (induced ocular hypertension), 8 hours after administration
  Intraocular pressure in the right eye: 12.96 mmHg
[1]; 2.0 mg/mL in right eye (induced ocular hypertension), 10 hours after administration
  Intraocular pressure in the right eye: 11.96 mmHg
[1]; 2.0 mg/mL in right eye (induced ocular hypertension), before administration
  Intraocular pressure in the right eye: 11.23 mmHg
[1]; 8.0 mg/mL group, 2 hours after administration
  Intraocular pressure in the left eye: 5.93 mmHg
[1]; 8.0 mg/mL group, 4 hours after administration
  Intraocular pressure in the left eye: 6.43 mmHg
[1]; 8.0 mg/mL group, 6 hours after administration
  Intraocular pressure in the left eye: 10.10 mmHg
[1]; 8.0 mg/mL group, 8 hours after administration
  Intraocular pressure in the left eye: 11.87 mmHg
[1]; 8.0 mg/mL group, 10 hours after administration
  Intraocular pressure in the left eye: 13.19 mmHg
[1]; 8.0 mg/mL group, before administration
  Intraocular pressure in the left eye: 11.20 mmHg
[1]; 8.0 mg/mL in right eye (induced ocular hypertension), 2 hours after administration
  Intraocular pressure in the right eye: 7.40 mmHg
[1]; 8.0 mg/mL in right eye (induced ocular hypertension), 4 hours after administration
  Intraocular pressure in the right eye: 7.97 mmHg
[1]; 8.0 mg/mL in right eye (induced ocular hypertension), 6 hours after administration
  Intraocular pressure in the right eye: 8.84 mmHg
[1]; 8.0 mg/mL in right eye (induced ocular hypertension), 8 hours after administration
  Intraocular pressure in the right eye: 8.60 mmHg
[1]; 8.0 mg/mL in right eye (induced ocular hypertension), 10 hours after administration
  Intraocular pressure in the right eye: 8.78 mmHg
[1]; 8.0 mg/mL in right eye (induced ocular hypertension), before administration
  Intraocular pressure in the right eye: 11.53 mmHg

## C[C@H]1CNCCCN1S(=O)(=O)c1cccc2cncc(F)c12 [Compound K-115, reference compound]
[1]; 4 mg/mL group, 2 hours after administration
  Intraocular pressure in the left eye: 6.50 mmHg
[1]; 4 mg/mL group, 4 hours after administration
  Intraocular pressure in the left eye: 8.54 mmHg
[1]; 4 mg/mL group, 6 hours after administration
  Intraocular pressure in the left eye: 11.40 mmHg
[1]; 4 mg/mL group, 8 hours after administration
  Intraocular pressure in the left eye: 13.20 mmHg
[1]; 4 mg/mL group, 10 hours after administration
  Intraocular pressure in the left eye: 13.37 mmHg
[1]; 4 mg/mL group, before administration
  Intraocular pressure in the left eye: 11.80 mmHg
[1]; 4 mg/mL in right eye (induced ocular hypertension), 2 hours after administration
  Intraocular pressure in the right eye: 8.20 mmHg
[1]; 4 mg/mL in right eye (induced ocular hypertension), 4 hours after administration
  Intraocular pressure in the right eye: 11.27 mmHg
[1]; 4 mg/mL in right eye (induced ocular hypertension), 6 hours after administration
  Intraocular pressure in the right eye: 15.07 mmHg
[1]; 4 mg/mL in right eye (induced ocular hypertension), 8 hours after administration
  Intraocular pressure in the right eye: 15.57 mmHg
[1]; 4 mg/mL in right eye (induced ocular hypertension), 10 hours after administration
  Intraocular pressure in the right eye: 16.47 mmHg
[1]; 4 mg/mL in right eye (induced ocular hypertension), before administration
  Intraocular pressure in the right eye: 11.77 mmHg
[2]; 1 hour after administration
  Intraocular pressure in the left eye: 5.88 mmHg
  Intraocular pressure in the right eye: 28.79 mmHg
[2]; 2 hours after administration
  Intraocular pressure in the left eye: 5.96 mmHg
  Intraocular pressure in the right eye: 22.67 mmHg
[2]; 4 hours after administration
  Intraocular pressure in the left eye: 8.29 mmHg
  Intraocular pressure in the right eye: 26.08 mmHg
[2]; 6 hours after administration
  Intraocular pressure in the left eye: 10.54 mmHg
  Intraocular pressure in the right eye: 23.25 mmHg
[2]; 8 hours after administration
  Intraocular pressure in the left eye: 11.88 mmHg
  Intraocular pressure in the right eye: 23.25 mmHg
[2]; 10 hours after administration
  Intraocular pressure in the left eye: 11.79 mmHg
  Intraocular pressure in the right eye: 11.92 mmHg
[2]; before administration
  Intraocular pressure in the left eye: 11.79 mmHg
  Intraocular pressure in the right eye: 11.92 mmHg
[3]; 1 hour after administration
  Intraocular pressure in the left eye: 11.42 mmHg
  Intraocular pressure in the right eye: 7.54 mmHg
  Reduction magnitude of intraocular pressure: 3.88 mmHg
[3]; 2 hours after administration
  Intraocular pressure in the left eye: 11.67 mmHg
  Intraocular pressure in the right eye: 8.63 mmHg
  Reduction magnitude of intraocular pressure: 3.04 mmHg
[3]; 4 hours after administration
  Intraocular pressure in the left eye: 12.08 mmHg
  Intraocular pressure in the right eye: 10.83 mmHg
  Reduction magnitude of intraocular pressure: 1.25 mmHg
[3]; 6 hours after administration
  Intraocular pressure in the left eye: 12.38 mmHg
  Intraocular pressure in the right eye: 11.83 mmHg
  Reduction magnitude of intraocular pressure: 0.55 mmHg
[3]; 8 hours after administration
  Intraocular pressure in the left eye: 12.83 mmHg
  Intraocular pressure in the right eye: 12.63 mmHg
  Reduction magnitude of intraocular pressure: 0.2 mmHg
[3]; 10 hours after administration
  Intraocular pressure in the left eye: 15.25 mmHg
  Intraocular pressure in the right eye: 14.92 mmHg
  Reduction magnitude of intraocular pressure: 0.33 mmHg
[3]; before administration
  Intraocular pressure in the left eye: 12.29 mmHg
  Intraocular pressure in the right eye: 12.92 mmHg
  Reduction magnitude of intraocular pressure: −0.63 mmHg

Reference: patent US12459918B2, “Isoquinolinone derivatives serving as rock protein kinase inhibitors and use thereof” (GUANGZHOU OCUSUN OPHTHALMIC BIOTECHNOLOGY CO., LTD., priority 2019, dated 2025)
